Like-named read-outs stand apart in the source and are kept apart here.
How the values were obtained:
[1] = molecular target: full-length human PIKFYVE (N-terminal GST-fusion) (Homo sapiens (Human), UniProt Q9Y2I7, L932S/Q1183K/Q995L/S1033A/S696N/T998S); test: PIKfyve biochemical assay (ADP-Glo Kinase assay, Carna Biosciences)
Summary of the method: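 Baculovirus-expressed, glutathione-purified GST-tagged full-length human PIKFYVE (S696N/L932S/Q995L/T998S/S1033A/Q1183K) reacted with substrate and ATP in 50 mM MOPS, 1 mM DTT, pH 7.2, 1 h at room temperature. ADP formed read by ADP-Glo luminescence.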

[2] = molecular target: PIKfyve (PIKFYVE-NanoLuc fusion in HEK293 cells) (Homo sapiens (Human), UniProt Q9Y2I7); test: NanoBRET TE Intracellular Kinase Assay, K-8 (Promega) cell-based assay; conditions: transfected HEK293 cells, 2 hours, read-out: hPIKfyve BRET IC50
Chain of PIKfyve (PIKFYVE-NanoLuc fusion in HEK293 cells) (Q9Y2I7 whole entry, the tested form may be a part): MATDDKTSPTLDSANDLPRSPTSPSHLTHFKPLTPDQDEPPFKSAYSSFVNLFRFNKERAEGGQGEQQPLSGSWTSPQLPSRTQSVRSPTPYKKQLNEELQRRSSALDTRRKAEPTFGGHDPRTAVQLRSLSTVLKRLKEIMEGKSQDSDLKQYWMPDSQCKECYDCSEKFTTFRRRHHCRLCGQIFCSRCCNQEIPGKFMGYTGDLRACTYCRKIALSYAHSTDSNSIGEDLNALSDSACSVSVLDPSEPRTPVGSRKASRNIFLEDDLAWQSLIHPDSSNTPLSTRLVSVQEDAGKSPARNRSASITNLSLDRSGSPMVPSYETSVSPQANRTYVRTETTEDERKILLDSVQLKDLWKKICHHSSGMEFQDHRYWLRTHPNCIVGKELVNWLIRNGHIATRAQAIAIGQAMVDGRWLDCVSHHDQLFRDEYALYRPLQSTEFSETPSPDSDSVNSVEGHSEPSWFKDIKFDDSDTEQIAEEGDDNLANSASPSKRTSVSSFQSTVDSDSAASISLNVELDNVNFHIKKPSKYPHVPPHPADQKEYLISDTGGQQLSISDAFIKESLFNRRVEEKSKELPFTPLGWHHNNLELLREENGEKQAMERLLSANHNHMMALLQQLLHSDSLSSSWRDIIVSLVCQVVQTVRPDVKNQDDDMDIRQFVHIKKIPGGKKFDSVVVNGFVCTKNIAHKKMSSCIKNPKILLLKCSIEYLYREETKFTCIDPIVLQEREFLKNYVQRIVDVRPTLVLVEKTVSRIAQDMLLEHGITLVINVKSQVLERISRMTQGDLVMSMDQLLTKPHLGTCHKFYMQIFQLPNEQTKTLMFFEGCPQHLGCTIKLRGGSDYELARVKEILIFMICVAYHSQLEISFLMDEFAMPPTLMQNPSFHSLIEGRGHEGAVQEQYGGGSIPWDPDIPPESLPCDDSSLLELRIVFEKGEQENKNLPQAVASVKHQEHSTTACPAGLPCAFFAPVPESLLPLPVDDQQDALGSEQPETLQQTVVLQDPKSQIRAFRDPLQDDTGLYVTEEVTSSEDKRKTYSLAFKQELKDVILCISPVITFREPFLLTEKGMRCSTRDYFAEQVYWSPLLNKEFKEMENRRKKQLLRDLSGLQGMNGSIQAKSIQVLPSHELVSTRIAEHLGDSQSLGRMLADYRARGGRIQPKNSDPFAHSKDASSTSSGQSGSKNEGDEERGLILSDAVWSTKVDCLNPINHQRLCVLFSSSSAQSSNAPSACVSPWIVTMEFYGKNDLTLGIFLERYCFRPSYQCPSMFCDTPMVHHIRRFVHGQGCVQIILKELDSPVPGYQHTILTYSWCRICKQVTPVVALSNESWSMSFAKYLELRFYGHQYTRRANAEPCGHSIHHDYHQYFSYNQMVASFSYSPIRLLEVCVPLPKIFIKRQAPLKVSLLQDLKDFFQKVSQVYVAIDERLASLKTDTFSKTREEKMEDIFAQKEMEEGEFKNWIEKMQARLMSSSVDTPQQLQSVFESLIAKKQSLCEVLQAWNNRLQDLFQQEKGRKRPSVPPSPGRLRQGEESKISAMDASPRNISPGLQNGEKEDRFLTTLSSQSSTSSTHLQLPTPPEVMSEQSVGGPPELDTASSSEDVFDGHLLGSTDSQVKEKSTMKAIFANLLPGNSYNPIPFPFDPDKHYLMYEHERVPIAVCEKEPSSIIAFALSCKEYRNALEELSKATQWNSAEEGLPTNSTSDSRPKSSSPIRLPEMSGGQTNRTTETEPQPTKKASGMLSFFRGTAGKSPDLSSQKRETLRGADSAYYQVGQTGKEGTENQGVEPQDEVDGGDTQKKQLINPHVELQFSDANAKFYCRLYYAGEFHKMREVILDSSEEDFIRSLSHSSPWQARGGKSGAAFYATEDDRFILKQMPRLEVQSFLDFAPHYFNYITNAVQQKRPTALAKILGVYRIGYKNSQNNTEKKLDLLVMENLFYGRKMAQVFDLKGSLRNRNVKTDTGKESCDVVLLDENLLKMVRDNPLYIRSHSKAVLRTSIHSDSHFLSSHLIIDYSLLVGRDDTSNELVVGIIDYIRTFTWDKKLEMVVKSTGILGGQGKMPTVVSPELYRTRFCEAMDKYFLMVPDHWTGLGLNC
Method: NanoBRET™ TE Intracellular Kinase Assay, K-8 (Promega) Cell-Based Assay. Intracellular inhibition of PIKfyve was assayed using Promega's NanoBRET™ TE Intracellular Kinase Assay, K-8 according to manufacturer's instructions. A dilution series of test compounds was added for 2 hours to HEK293 cells transfected for a minimum of 20 hours with PIKFYVE-NanoLuc® Fusion Vector (Promega) containing a full-length PIKfyve according to manufacturer's specifications in a 96-well plate. Kinase activity was detected by addition of a NanoBRET™ tracer reagent, which was a proprietary PIKfyve inhibitor appended to a fluorescent probe (BRET, bioluminescence resonance energy transfer). Test compounds were tested at concentrations of 10, 3, 1, 0.3, 0.1, 0.03, 0.01, 0.003 μM. BRET signals were measured by a GloMax®Discover Multimode Microplate Reader (Promega) using 0.3 sec/well integration time, 450 BP donor filter and 600 LP acceptor filters. Active test compounds that bound PIKfyve and displaced the tracer reduced BRET signal. IC50 values were then calculated by fitting the data to the normalized BRET ratio.

[3] = tested on: PIKFYVE TDP-43 yeast strain; test: Propidium iodide viability assay, PIKFYVE TDP-43 yeast strain; assay type: cell-based; conditions: for IC50: Saccharomyces cerevisiae, PIKFYVE TDP-43 yeast strain, reduction in PI-positive cells, highest concentration 15 μM, read-out: BIKFYVE TDP-43 (IC50); for PIKfyve TDP-43 (active/inactive): PIKFYVE TDP-43 yeast model
Text: (§1) Generation of TDP-43 yeast model expressing human PIKfyve. Human PIKFYVE (“entry clone”) was cloned into pAG416GPDccdB (“destination vector”) according to standard Gateway cloning protocols (Invitrogen, Life Technologies). The resulting pAG416GPD-PIKFYVE plasmids were amplified in E. coli and plasmid identity confirmed by restriction digest and Sanger sequencing. Lithium acetate/polyethylene glycol-based transformation was used to introduce the above PIKFYVE plasmid into a BY4741 yeast strain auxotrophic for the ura3 gene and deleted for two transcription factors that regulate the xenobiotic efflux pumps, a major efflux pump, and FAB1, the yeast ortholog of PIKFYVE (MATa, snq2::KILeu2; pdr3::KIura3;pdr1::NATMX; fab1::G418^R, his 3;leu2;ura3;met15;LYS2+) (FIG. 2). Transformed yeast were plated on solid agar plates with complete synthetic media lacking uracil (CSM-ura) and containing 2% glucose. Individual colonies harboring the control or PIKFYVE TDP-43 plasmids were recovered. A plasmid containing wild-type TDP-43 under the transcriptional control of the GAL1 promoter and containing the hygromycin-resistance gene as a selectable marker was transformed into the fab1::G418^R pAG416GPD-PIKFYVE yeast strain (FIG. 1). Transformed yeast were plated on CSM-ura containing 2% glucose and […] G418 after overnight recovery in media lacking antibiotic. Multiple independent isolates were further evaluated for cytotoxicity and TDP-43 expression levels.
(§2) Viability Assay. A control yeast strain with the wild-type yeast FAB1 gene and TDP-43 (“FAB1 TDP-43”, carries empty pAG416 plasmid), and the “PIKFYVE TDP-43” yeast strain, were assessed for toxicity using a propidium iodide viability assay. Both yeast strains were transferred from solid CSM-ura/2% glucose agar plates into 3 mL of liquid CSM-ura/2% glucose media for 6-8 hours at 30° C. with aeration. Yeast cultures were then diluted to an optical density at 600 nm wavelength (OD600) of 0.005 in 3 mL of CSM-ura/2% raffinose and grown overnight at 30° C. with aeration to an OD600 of 0.3-0.8. Log-phase overnight cultures were diluted to OD600 of 0.005 in CSM-ura containing either 2% raffinose or galactose and 150 μL dispensed into each well of a flat bottom 96-well plates. Compounds formulated in 100% dimethyl sulfoxide (DMSO) were serially diluted in DMSO and 1.5 μL diluted compound transferred to the 96-well plates using a multichannel pipet. Wells containing DMSO alone were also evaluated as controls for compound effects. Tested concentrations ranged from 15 μM to 0.11 μM. Cultures were immediately mixed to ensure compound distribution and covered plates incubated at 30° C. for 24 hours in a stationary, humified incubator.
(§3) Upon the completion of incubation, cultures were assayed for viability using propidium iodide (PI) to stain for dead/dying cells. A working solution of PI was made where, for each plate, 1 μL of 10 mM PI was added to 10 mL of CSM-ura (raffinose or galactose). The final PI solution (50 μL/well) was dispensed into each well of a new round bottom 96-well plate. The overnight 96-well assay plate was then mixed with a multichannel pipet and 50 μL transferred to the PI-containing plate. This plate was then incubated for 30 minutes at 30° C. in the dark. A benchtop flow cytometer (Miltenyi MACSquant) was then used to assess red fluorescence (B2 channel), forward scatter, and side scatter (with following settings: gentle mix, high flow rate, fast measurement, 10,000 events). Intensity histograms were then gated for “PI-positive” or “PI-negative” using the raffinose and galactose cultures treated with DMSO as controls. The DMSO controls for raffinose or galactose-containing cultures were used to determine the window of increased cell death and this difference set to 100. All compounds were similarly gated and then compared to this maximal window to establish the percent reduction in PI-positive cells.
Biochemical and Efficacy Assays. […]

[4] = tested on: FAB1 TDP-43 yeast strain; test: Propidium iodide viability assay, FAB1 TDP-43 yeast strain; assay type: cell-based; conditions: for FAB1 TDP-43 (active/inactive): FAB1 TDP-43 yeast model
Text: as §1, §2, §3

[5] = ADP-Glo, full-length human GST-PIKFYVE, 10 μM to 3 nM, read-out: hPIKfyve IC50

Chain of full-length human PIKFYVE (N-terminal GST-fusion) (Q9Y2I7 whole entry S696N/L932S/Q995L/T998S/S1033A/Q1183K, the tested form may be a part): as the sequence (Q9Y2I7 whole entry, the tested form may be a part) above, with S696N, L932S, Q995L, T998S, S1033A, Q1183K counted along it

## Clc1nc(N2CCOCC2)nc2c1CCN2c1ccccc1 [Compound 1, 4-(4-chloro-7-phenyl-6,7-dihydro-5H-pyrrolo[2,3-d]pyrimidin-2-yl)morpholine]
[1]; [5]
  IC50: 0.1 to 1 µM
[2]
  IC50: 0.1 to 1 µM

## c1ccc(-n2ncc3c(OCc4cccnc4)nc(N4CCOCC4)nc32)cc1 [Compound 132, 4-(1-phenyl-4-(pyridin-3-ylmethoxy)-1H-pyrazolo[3,4-d]pyrimidin-6-yl)morpholine]
[1]; [5]
  IC50: 0.01 to 0.1 µM
[2]
  IC50: 0.1 to 1 µM

## Cc1cccc(/C=N/Nc2nc(N3CCOCC3)c3ncccc3n2)c1
[3]
  IC50: 8.21 µM

## Cn1c(-c2ccncc2)nc2c(N3CCOCC3)ncnc21
[3]
  PIKfyve TDP-43 (active/inactive): Inactive
[4]
  FAB1 TDP-43 (active/inactive): Inactive

## c1ccc(-c2cccc(-c3cc(N4CCOCC4)n4nc(-c5ccncc5)cc4n3)n2)cc1
[3]
  IC50: 0.23 µM

## Cc1cccc(/C=N/Nc2cc(N3CCOCC3)n3nc(-c4ccncc4)cc3n2)c1 [drawing 514]
[3]
  PIKfyve TDP-43 (active/inactive): Active
[4]
  FAB1 TDP-43 (active/inactive): Inactive

## c1ccc(N2CCc3c(OC4CCOCC4)nc(N4CCOCC4)nc32)cc1 [Compound 21, 4-(7-phenyl-4-((tetrahydro-2H-pyran-4-yl)oxy)-6,7-dihydro-5H-pyrrolo[2,3-d]pyrimidin-2-yl)morpholine]
[1]; [5]
  IC50: 0.1 to 1 µM
[2]
  IC50: 0.1 to 1 µM

## Oc1cc(C2CCOCC2)nn1-c1cc(N2CCOCC2)n2nc(-c3ccncc3)cc2n1
[3]
  IC50: 9.11 µM

## Cc1cccc(/C=N/Nc2cc(N3CCOCC3)nc(OCCc3ccc(CN)cc3)n2)c1
[3]
  IC50: 1.12 µM

## CN(C)c1cc(N2CCOCC2)n2nc(-c3ccncc3)cc2n1
[3]
  PIKfyve TDP-43 (active/inactive): Inactive
[4]
  FAB1 TDP-43 (active/inactive): Inactive

## Fc1cccc(-c2ccnn2-c2nc(N3CCOCC3)c3ncccc3n2)c1
[3]
  IC50: 5.75 µM
[1]; values plotted in FIG. 7, read-out: PIKFYVE Biochemistry (IC50)
  IC50: > 10 µM

## c1ccc(N2CCc3c(OCc4cccnc4)nc(N4CCOCC4)nc32)cc1 [drawing 539]
[3]
  IC50: 2.69 µM

## N#Cc1cc(N2CCOCC2)n2nc(-c3ccncc3)cc2n1
[3]
  PIKfyve TDP-43 (active/inactive): Inactive
[4]
  FAB1 TDP-43 (active/inactive): Inactive

## Oc1cc(-c2ccccc2)nn1-c1cc(N2CCOCC2)n2nc(-c3ccncc3)nc2n1
[3]
  IC50: 0.693 µM

## c1ccc(-c2ccnc(-c3cc(N4CCOCC4)nc(OCc4ccncc4)n3)n2)cc1
[3]
  IC50: 1.45 µM

## Cc1cccc(/C=N/Nc2nc(N3CCOCC3)c3nc(-c4ccncc4)n(C)c3n2)c1
[3]
  IC50: 4.72 µM

## Cc1cccc(/C=N/Nc2cc(N3CC4CC3CO4)n3nc(-c4ccncc4)cc3n2)c1 (centres unmarked)
[3]
  PIKfyve TDP-43 (active/inactive): Active
[4]
  FAB1 TDP-43 (active/inactive): Inactive

## Cc1cccc(/C=N/Nc2cc(N3CCOCC3)n3nc(-c4ccncc4)cc3n2)c1 [APY0201, reference compound]
[3]; 0.23 μM, FIG. 6
  propidium iodide-positive dead cells in PIKFYVE TDP-43: reduced the population of propidium iodide-positive dead cells
[3]; PIKFYVE TDP-43 model
  concentrations affording increased viability in PIKFYVE TDP-43: Concentrations ranging from 0.5 mM to less than 100 nM afforded increased viability
[4]; across a range of compound concentrations (only 0.23 μM is shown), FIG. 5
  viable cells in FAB1 TDP-43 (propidium iodide): no increase in viable cells

## Cc1cccc(/C=N/Nc2nc3c(c(N4CCOCC4)n2)N=C(c2ccncc2)C3C)c1 (centres unmarked)
[3]
  PIKfyve TDP-43 (active/inactive): Active
[1]; ADP-Glo with full-length PIKfyve, read-out: PIKfyve IC50
  IC50: 0.0049 µM
[4]
  FAB1 TDP-43 (active/inactive): Inactive

## c1cncc(Oc2nc(N3CCOCC3)nc3c2CCN3c2cccnc2)c1 [Compound 55, 4-(7-(pyridin-3-yl)-4-(pyridin-3-yloxy)-6,7-dihydro-5H-pyrrolo[2,3-d]pyrimidin-2-yl)morpholine]
[1]; [5]
  IC50: 0.1 to 1 µM

## Cc1cccc(-c2ccn(-c3nc(N4CCOCC4)nc4c3CCN4c3cccnc3)n2)c1 [Compound 83, 4-(7-(pyridin-3-yl)-4-(3-(m-tolyl)-1H-pyrazol-1-yl)-6,7-dihydro-6H-pyrrolo[2,3-d]pyrimidin-2-yl)morpholine]
[1]; [5]
  IC50: 0.01 to 0.1 µM

## c1cncc(COc2nc(N3CCOCC3)nc3c2CCN3C2CCNCC2)c1 [Compound 6, 4-(7-(piperidin-4-yl)-4-(pyridin-3-ylmethoxy)-6,7-dihydro-5H-pyrrolo[2,3-d]pyrimidin-2-yl)morpholine]
[1]; [5]
  IC50: > 10 µM
